≈ marks a conversion by molar mass, not a printed value. Read-outs that look alike come from different tables or passages of the source.
Legend:
[1] = tested on: Staphylococcus Pneumoniae 9912; assay: MIC by agar dilution (NCCLS), Streptococcus pneumoniae 9912; format: cell-based; details: S. pneumoniae 9912
Protocol: (§1) The saturated and unsaturated 3-aryl butyrolactone compounds of the present invention have useful activity against a variety of organisms. The in vitro activity of compounds of the present invention are assessed by standard testing procedures such as the determination of minimum inhibitory concentration (MIC) by agar dilution as described in "Methods for Dilution Antimicrobial Susceptiblity Tests for Bacteria That Grow Aerobically" (MFT) published January 1993 by the National Committee for Clinical Laboratory Standards. (NCCLS), 771 East Lancaster Avenue, Villanova, Pa. 19084 USA. The activity of selected compounds of the present invention against Staphylococcus aureus and Streptococcus pneumoniae are shown in Table 1.

S. aureus UC9213 = assay: Murine Assay, in vivo antimicrobial activity (ED50, survival); parameters: species or system Staphylococcus aureus (infected female mice); details: Staphylococcus aureus, 144 h, read-out: ED50 (S. aureus UC9213, sq)
Protocol: Antimicrobial activity was tested in vivo using the Murine Assay procedure. Groups of female mice (six mice of 18-20 grams each) are injected intraperitoneally with bacteria which is thawed just prior to use and suspended in brain heart infusion with 4% brewer's yeast (Staphylococcus aureus) or brain heart infusion (Streptococcus species). Antibiotic treatment at six dose levels per drug is administered one hour and five hours after infection by either oral intubation or subcutaneous routes. Survival is observed daily for six days. ED50 values based on mortality ratios are calculated using probit analysis. The subject compounds are compared against well-known antimicrobials as controls.

[2] = tested on: Staphylococcus Aureus 9213; assay: MIC by agar dilution (NCCLS), Staphylococcus aureus 9213; format: cell-based
Protocol: as §1

MIC [1] | MIC ([2]; AUREUS9213, agar dilution, S. aureus 9213, read-out: MIC Staphylococcus Aureus 9213) | Compound | ED50 (S. aureus UC9213; infected ip, mice infected i.p. with S. aureus UC9213, sq treatment 1 h and 5 h after infection, survival six days, probit analysis) | ED50 (S. aureus UC9213; UC9213, infected ip) | MIC ([2]; AUREUS9213, read-out: Vancomycin MIC)
< 0.5 µg/mL | 2 µg/mL (≈ 5.47 µM) | COc1ccc(-c2ccc(C3=CC(CNC(C)=O)OC3=O)cc2)ccc1=O (centres unmarked) [Example 1, Acetamide, N-[[4-[4-[4-(2-methoxy)-5-oxo-1,3,6-cycloheptatrien-1-yl]phenyl]-2,5-dihydro-5-oxo-2-furanyl]methyl]-] | 9.3 mg/kg |  | 
 |  | CN[C@H](CC(C)C)C(=O)N[C@H]1C(=O)N[C@@H](CC(N)=O)C(=O)N[C@H]2C(=O)N[C@H]3C(=O)N[C@H](C(=O)N[C@H](C(=O)O)c4cc(O)cc(O)c4-c4cc3ccc4O)[C@H](O)c3ccc(c(Cl)c3)Oc3cc2cc(c3O[C@@H]2O[C@H](CO)[C@@H](O)[C@H](O)[C@H]2O[C@H]2C[C@](C)(N)[C@H](O)[C@H](C)O2)Oc2ccc(cc2Cl)[C@H]1O [Vancomycin, reference compound] |  | 1.9 mg/kg | 1 µg/mL (≈ 0.69 µM)
